Results: patent publication US20090176807A1, “GLUCOCORTICOID MIMETICS, METHODS OF MAKING THEM, PHARMACEUTICAL COMPOSITIONS, AND USES THEREOF” (priority 2005, published 2009)

Columns and labels:
[1] = target: T1, human glucocorticoid receptor (GR) complex (Homo sapiens, UniProt P04150); assay: Glucocorticoid receptor competitive binding assay (fluorescence polarization); settings: competition with TAMRA-labeled dexamethasone, result in words only
T1 construct: made in house; host or cells: insect expression system (baculovirus lysate)
T1 sequence (P04150 1-777): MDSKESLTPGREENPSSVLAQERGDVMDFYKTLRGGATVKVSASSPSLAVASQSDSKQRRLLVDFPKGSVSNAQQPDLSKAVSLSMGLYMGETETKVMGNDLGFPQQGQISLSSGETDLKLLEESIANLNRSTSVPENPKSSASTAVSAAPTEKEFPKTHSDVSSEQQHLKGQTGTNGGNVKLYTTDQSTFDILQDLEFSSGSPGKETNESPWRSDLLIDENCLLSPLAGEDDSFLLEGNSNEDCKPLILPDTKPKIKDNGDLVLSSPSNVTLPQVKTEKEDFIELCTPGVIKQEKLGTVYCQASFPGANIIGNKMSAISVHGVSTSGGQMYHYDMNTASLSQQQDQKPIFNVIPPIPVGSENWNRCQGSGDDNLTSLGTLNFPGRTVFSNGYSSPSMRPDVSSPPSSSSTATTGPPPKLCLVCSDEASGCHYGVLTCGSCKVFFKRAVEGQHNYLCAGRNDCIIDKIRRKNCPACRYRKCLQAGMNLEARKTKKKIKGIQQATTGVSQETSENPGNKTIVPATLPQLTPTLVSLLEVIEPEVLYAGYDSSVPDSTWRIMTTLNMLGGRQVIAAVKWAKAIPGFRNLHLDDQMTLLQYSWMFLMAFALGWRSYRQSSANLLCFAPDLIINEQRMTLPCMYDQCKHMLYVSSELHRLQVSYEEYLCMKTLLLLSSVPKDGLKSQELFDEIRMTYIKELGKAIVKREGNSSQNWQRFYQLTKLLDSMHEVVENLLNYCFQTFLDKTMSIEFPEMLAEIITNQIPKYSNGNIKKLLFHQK
Procedure: Compounds of the invention were evaluated for binding to the steroid receptor by a fluorescence polarization competitive binding assay.
The wavelengths for maximum excitation and emission of the fluorescent probe should first be measured. An example of such a probe is rhodamine (TAMRA)-labeled dexamethasone.
The affinity of the probe for the steroid receptor was then determined in a titration experiment. The fluorescence polarization value of the probe in assay buffer was measured on an SLM-8100 fluorometer using the excitation and emission maximum values described above. Aliquots of expression vector lysate were added and fluorescence polarization was measured after each addition until no further change in polarization value was observed. Non-linear least squares regression analysis was used to calculate the dissociation constant of the probe from the polarization values obtained for lysate binding to the probe.
This assay uses fluorescence polarization (FP) to quantitate the ability of test compounds to compete with tetramethyl rhodamine (TAMRA)-labeled dexamethasone for binding to a human glucocorticoid receptor (GR) complex prepared from an insect expression system. The assay buffer was: 10 mM TES, 50 mM KCl, 20 mM Na2MoO4.2H2O, 1.5 mM EDTA, 0.04% w/v CHAPS, 10% v/v glycerol, 1 mM dithiothreitol, pH 7.4. Test compounds were dissolved to 1 mM in neat DMSO and then further diluted to 10× assay concentration in assay buffer supplemented with 10% v/v DMSO. Test compounds were serially diluted at 10× assay concentrations in 10% DMSO-containing buffer in 96-well polypropylene plates. Binding reaction mixtures were prepared in 96-well black Dynex microtiter plates by sequential addition of the following assay components to each well: 15 μL of 10× test compound solution, 85 μL of GR-containing baculovirus lysate diluted 1:170 in assay buffer, and 50 μL of 15 nM TAMRA-labeled dexamethasone. Positive controls were reaction mixtures containing no test compound; negative controls (blanks) were reaction mixtures containing 0.7 μM to 2 μM dexamethasone. […] IC50 values were determined by iterative non-linear curve fitting of the FP signal data to a 4-parameter logistic equation.

[2] = test system: Human osteosarcoma MG-63 cells; assay: Inhibition of osteocalcin production from osteoblast cell line MG-63; assay type: cell-based; settings: Vitamin D 10 nM, 48 hours, osteocalcin ELISA, result in words only
Procedure: Human osteosarcoma MG-63 cells (ATCC, Cat. No. CRL-1427) are plated on 96 well plates at 20,000 cells per well the day before use in 200 μL media of 99% D-MEM/F-12 (Gibco-Invitrogen, Cat. No. 11039-021), supplemented with 1% penicillin and streptomycin (Gibco-Invitrogen, Cat. No. 15140-122), 10 μg/mL Vitamin C (Sigma, Cat. No. A-4544), and 1% charcoal filtered Fetal Bovine Serum (HyClone, Cat. No. SH30068.02). The next day, wells are replaced with fresh media. Cells are treated with Vitamin D (Sigma, Cat. No. D1530) to a final concentration of 10 nM, and with the test compounds in concentrations of 10^−6 M to 10^−9 M, in a total volume of 200 μL per well. Samples are done in duplicates. […] Positive control wells receive Vitamin D only, without compounds, and represent maximum (100%) amount of osteocalcin production. Plates are incubated at 37° C. incubator for 48 hours and supernatants are harvested at the end of incubation. Amounts of osteocalcin in the supernatants are determined by the Glype osteocalcin ELISA kit (Zymed, Cat. No. 99-0054) according to manufacture's protocol. Inhibition of osteocalcin by test compounds is expressed in percentage relative to positive controls. IC50 values of the test compounds are derived by non-lineal curve fitting.

Row | SMILES | activity in the GR binding assay [1] | melting point [°C] | inhibition of the vitamin D stimulated production of osteocalcin [2]
1 | CC(C)(CC(O)(Cn1cc(Br)c(=O)c2sccc21)C(F)(F)F)c1cccc2c1OCO2 (stereo not shown) [4-(4-Benzo[1,3]dioxol-4-yl-2-hydroxy-4-methyl-2-trifluoromethylpentyl)-6-bromo-4H-thieno[3,2-b]pyridin-7-one] | potent activity | 197 to 198 | 
2 | CC(C)(CC(O)(Cn1cc(Cl)c(=O)c2sccc21)C(F)(F)F)c1cc(-c2cncnc2)ccc1O (stereo not shown) [6-Chloro-4-[2-hydroxy-4-(2-hydroxy-5-pyrimidin-5-ylphenyl)-4-methyl-2-trifluoromethylpentyl]-4H-thieno[3,2-b]pyridin-7-one] | potent activity |  | inhibit the vitamin D stimulated production of osteocalcin
3 | CC(C)(CC(O)(Cn1ccc(=O)c2sccc21)C(F)(F)F)c1cc(-c2cccnc2)ccc1O (stereo not shown) [4-[2-Hydroxy-4-(2-hydroxy-5-pyridin-3-ylphenyl)-4-methyl-2-trifluoromethylpentyl]-4H-thieno[3,2-b]pyridin-7-one] | potent activity |  | inhibit the vitamin D stimulated production of osteocalcin
4 | CC(C)(CC(O)(Cn1cc(Cl)c(=O)c2sccc21)C(F)(F)F)c1cc(-c2cccnc2)ccc1O (stereo not shown) [6-Chloro-4-[2-hydroxy-4-(2-hydroxy-5-pyridin-3-ylphenyl)-4-methyl-2-trifluoromethylpentyl]-4H-thieno[3,2-b]pyridin-7-one] | potent activity |  | inhibit the vitamin D stimulated production of osteocalcin
5 | CC(C)(CC(O)(Cn1ccc(=O)c2sccc21)C(F)(F)F)c1cc(F)ccc1O (stereo not shown) [4-[4-(5-Fluoro-2-hydroxyphenyl)-2-hydroxy-4-methyl-2-trifluoromethylpentyl]-4H-thieno[3,2-b]pyridin-7-one] | potent activity |  | inhibit the vitamin D stimulated production of osteocalcin
6 | Cc1ccc(F)cc1C(C)(C)CC(O)(Cn1ccc(=O)c2sccc21)C(F)(F)F (stereo not shown) [4-[4-(5-Fluoro-2-methylphenyl)-2-hydroxy-4-methyl-2-trifluoromethylpentyl]-4H-thieno[3,2-b]pyridin-7-one] | potent activity |  | 
7 | COc1ccccc1C(C)(C)CC(O)(Cn1ccc(=O)c2sccc21)C(F)(F)F (stereo not shown) [4-[2-Hydroxy-4-(2-methoxyphenyl)-4-methyl-2-trifluoromethylpentyl]-4H-thieno[3,2-b]pyridin-7-one] | potent activity |  | 

The next lines start with results.

Row | activity in the GR binding assay [1] | melting point [°C] | SMILES | inhibition of the vitamin D stimulated production of osteocalcin [2]
8 | potent activity | 158 to 160 | CC(C)(CC(O)(Cn1cc(Cl)c(=O)c2cnccc21)C(F)(F)F)c1cccc2c1OCC2 (stereo not shown) [3-Chloro-1-[4-(2,3-dihydrobenzofuran-7-yl)-2-hydroxy-4-methyl-2-trifluoromethylpentyl]-1H-[1,6]naphthyridin-4-one] | 
9 | potent activity |  | CC(C)(CC(O)(Cn1cc(Cl)c(=O)c2sccc21)C(F)(F)F)c1cccc2c1OCC2 (stereo not shown) [6-Chloro-4-[4-(2,3-dihydrobenzofuran-7-yl)-2-hydroxy-4-methyl-2-trifluoromethylpentyl]-4H-thieno[3,2-b]pyridin-7-one] | 
10 | potent activity |  | CC(C)(CC(O)(Cn1cc(Cl)c(=O)c2sccc21)C(F)(F)F)c1cc(-c2cccnc2)cc2c1OCC2 (stereo not shown) [6-Chloro-4-[2-hydroxy-4-methyl-4-(5-pyridin-3-yl-2,3-dihydrobenzofuran-7-yl)-2-trifluoromethylpentyl]-4H-thieno[3,2-b]pyridin-7-one] | 
